Results published in patent US4025649A, “Acetic acid derivatives having pharmacological activity and compositions containing the same” (priority 1975, dated 1977).

Assays:
[1] = system: γ-aminobutyric α-ketoglutaric transaminase (GABA T); assay: Inhibition of GABA T in vitro (coupled spectrophotometric test with GABASE); format: biochemical, Pseudomonas fluorescens; conditions: comparison of Ki with sodium di-n-propylacetate (0.8 m mol/ml)
Procedure: This test was undertaken "in vitro" in the absorption cell of a double-beam U.V. spectrophotometer.
The activity of GABA T was measured by following the reduction rate (v) of NADP^+ which corresponds to the evolution of the optical density at 340 mμ on the spectrophotometer.
Determination of the activity rate of GABA T by the principle hereabove described can be effected with either limiting concentrations or a saturating concentration of one of the substrates, in the present case GABA, in each instance, in the presence of a saturating concentration of the second substrate namely α-ketoglutarate.
This effectiveness is represented by the constant Ki or constant of inhibition which determines the affinity of the enzyme (GABA T) for the inhibitor.
This constant is expressed in units of concentration, in the present case, in m mol per ml and can be determined by plotting all the curves corresponding to 1/v = f (I) for a saturating concentration of GABA and for different limiting concentrations of GABA.
The following experimental procedure was used:
In the absorption cell (optical passage: 1 cm, volume: about 1 ml) the following solutions were introduced.
0.5 ml of a 1.5 molar solution of sodium sulphate
0.05 ml of a molar buffer solution of pH = 7.9
0.05 ml of a 0.1 molar solution of mercapto-ethanol
0.05 ml of a 20 mg/ml solution of NADP^+
0.125 ml of a solution of GABA
0.03 ml of a 40 mg/ml solution of GABASE (namely a bacterial enzyme isolated from Pseudomonas fluorescens containing a mixture of γ-aminobutyric α-ketoglutaric transaminase and succinosemialdehyde dehydrogenase).
0.125 ml of a solution of the compound to be studied.
If the compound of the invention was in the form of a water-insoluble acid, its sodium salt was used after adjustment to a pH of about 7.9 by adding a titrated solution of sodium hydroxide.
Different measurements of optical density were effected by varying the concentration of GABA and the concentration of the compound under study. Control assays were also effected by replacing the solution of the compound to be studied by 0.125 ml of water.
The content of the absorption cell was allowed to incubate for 10 minutes at 30° C. and then the enzymatic reaction was started by adding 0.1 ml of a 0.02 molar solution of α-ketoglutarate in the absorption cell. The final volume was 1.03 ml. The reaction was then followed by spectrophotometric recording of the reduction rate of the NADP^+ at 340 mμ and at 30° C. The optical density was automatically registered every 30 seconds.

[2] = system: anoxic seizure induced by gallamine triiodoethylate; assay: Antianoxic activity: anoxic seizure induced by gallamine triiodoethylate; format: in vivo, mouse; conditions: mice; for antianoxic activity compared with sodium di-n-propylacetate: at the doses studied in Table II
Procedure: The injection of a sufficient dose of a synthetic curariform substance such as gallamine triiodoethylate provokes in the mouse paralysis of the diaphragm. The animal then dies through asphyxia.
An intraperitoneal dose of the compound to be studied was administered to batches of 20 mice five minutes before the administration of 16 mg/kg of gallamine triiodoethylate by intraperitoneal route. The dose of the compound to be tested was calculated so that each batch received a higher dose than the preceding batch.
The period of time of survival was registered by controlling cardiac arrest by means of an electrocardiogram.
Under these conditions, an antianoxic effect produces an increase in the period of survival of the animal.

[3] = system: pentylenetetrazol-induced seizure; assay: Anticonvulsant activity: pentylenetetrazol-induced seizure; format: in vivo; conditions: for % of protection: i.p. 15 min before 125 mg/kg pentylenetetrazol i.p., deaths noted at 3 hours, dose mg/kg: A 160, B 175, C 185, F 185, G 175; for anticonvulsant activity compared with sodium di-n-propylacetate / duration of anticonvulsant action compared with sodium di-n-propylacetate: pentylenetetrazol test
Procedure: This test is carried out on mice with a view to determining whether the compounds of this invention, when given preventively by intraperitoneal route, are capable at certain doses of protecting some of the animals against the epileptic seizure produced by an adequate and predetermined dose of pentylenetetrazol which would be 100% fatal in the absence of the compound.
The test was carried out on batches of 10 mice. Each batch of animals received an intraperitoneal dose of the compound to be studied so that each batch received a higher dose than the preceding batch. Fifteen minutes after administration of the compound to be tested, the animals were each given 125 mg/kg of pentylenetetrazol by intraperitoneal route. The percentage of deaths was noted 3 hours after injection of this latter compound and the result was expressed as a percentage of protection.

in vivo = conditions: ip, mouse, intraperitoneal route
[4] = Solubility of the isolated acid; format: physicochemical; conditions: free acid
Excerpt: In this manner, 9.6 g of 3-n-propyl-hexanoic acid were obtained in the form of a colourless, slightly viscous liquid, insoluble in water and soluble in the organic solvents.

[5] = system: pentylenetetrazol-induced seizure; assay: Anticonvulsant activity: pentylenetetrazol-induced seizure; format: in vivo; conditions: mice; for % of the animals still protected one hour after administration: 195 mg/kg of Compound B, 210 mg/kg of Compound C
[6] = i.p. 5 min before 16 mg/kg gallamine triiodoethylate i.p., dose mg/kg: A 360, D 250, E 150, F 210, G 355
[7] = mice, 195 mg/kg of Compound B, 210 mg/kg of Compound C

Row | SMILES | activity as GABA T inhibitor compared with sodium di-n-propylacetate [1] | antianoxic activity compared with sodium di-n-propylacetate [2] | % of increase in the period of survival in comparison with the controls [2, 6] | % of protection ([3]; mice) | LD50 (in vivo) | further results
1 | CCCC(=CC(=O)O)CCC [Compound G, 3-n-Propyl-2-hexenoic acid] | more active | slightly more active | 50% | 75% |  | 
2 | CCCC(CCC)CC(=O)O [Compound A, 3-n-Propyl-hexanoic acid] | more active | slightly more active | 60% | 100% | 500 mg/kg | anticonvulsant activity compared with sodium di-n-propylacetate ([3]; mice): more active; % protection against the pentylenetetrazol-induced seizure ([3]; mice, 105 mg/kg by intraperitoneal route): 85%; MTD (in vivo; read-out: LDO, maximum tolerated dose (M.T.D.), highest dose which provokes no deaths): > 400 mg/kg; solubility in the organic solvents ([4]; organic solvents): soluble; solubility in water ([4]; water): insoluble
3 | CCCCC(CCCC)CC(=O)O [Compound F, 3-n-Butyl-heptanoic acid] | slightly less active | slightly more active | 29% | 95% | 300 mg/kg | anticonvulsant activity compared with sodium di-n-propylacetate ([3]; mice): more active
4 | CC(C)CC(=O)O [Compound D, 3-methyl-butanoic acid] |  | appreciably more active | 73% |  |  | 
5 | CCCC(CCC)CCC(=O)O [Compound B, 4-n-Propyl-heptanoic acid] | slightly less active |  |  | 85% | 350 mg/kg | duration of anticonvulsant action compared with sodium di-n-propylacetate ([3]; mice): longer period of time; % protection against the pentylenetetrazol-induced seizure [3, 7]: about 100%; % of the animals still protected one hour after administration [5]: 40%
6 | CCCC(CCC)CCCC(=O)O [Compound C, 5-n-Propyl-octanoic acid] |  |  |  | 85% | 350 mg/kg | % of the mice protected against the pentylenetetrazol-induced seizure ([3]; 125 mg/kg by intraperitoneal route): 65%; duration of anticonvulsant action compared with sodium di-n-propylacetate ([3]; mice): longer period of time; % protection against the pentylenetetrazol-induced seizure [3, 7]: about 100%; % of the animals still protected one hour after administration [5]: 70%
7 | CCC(CC)CC(=O)O [Compound E, 3-ethyl-pentanoic acid] |  | appreciably more active | 59% |  |  | 
8 | CCCC(CCC)C(=O)[O-].[Na+] [sodium di-n-propylacetate, reference compound] |  |  |  |  |  | % of increase in the period of survival in comparison with the controls ([2]; 330 mg/kg, same conditions (i.p. 5 min before 16 mg/kg gallamine triiodoethylate i.p.)): 40%; % of animals protected against the pentylenetetrazol-induced seizure ([3]; mice, 250 mg/kg, same conditions): 100%; % protection of the animals one hour after administration ([5]; 250 mg/kg): 20%
